Measurements taken from patent US5625031A, “Peptide inhibitors of the p33^cdk2 and p34^cdc2 cell cycle regulatory kinases and human papillomavirus E7 oncoprotein” (Bristol-Myers Squibb Company, priority 1994, dated 1997).
Where two headings read alike, the source gives them in different places. Where a SMILES comes first, the peptide text is derived from it. Where no end group is shown, it is not given here.

What was measured:
p34^cdc2 [1] = target: T1, p34^cdc2 (Homo sapiens, UniProt P06493); experiment: Histone H1 kinase activity of p107 30mer-sepharose bound versus immunoprecipitated p34^cdc2; assay type: biochemical; parameters: endogenous in cells; host or cells: HeLa
Description: (§1) Assay of p34^cdc2 Kinase Activity: Histone H1 kinase reactions were performed in 50 mM Tris, pH 8.0, 10 mM MgCl2, 0.5 mM DTT, 1 mM EGTA plus 0.1 mM ATP, 1 μCi γ-[^32 P]-ATP and 10 μg histone H1 (Boeringer Mannheim), and a source of p34^cdc2. Reactions were incubated at 30° C. for 20 minutes and stopped by the addition of protein gel sample buffer. Kinase reactions were separated by SDS-PAGE (12.5% gel). The bands were detected by autoradiography and the amount of ^32 P incorporated was quantitated using an Ambis Radioanalytic Imaging System.
In order to examine the effect of binding of p34^cdc2 to p107 30mer-sepharose on p34^cdc2 kinase activity, histone H1 kinase activities associated with p107 30mer-sepharose and immunoprecipitated p34^cdc2 were compared as follows. p34^cdc2 was bound to p107 30mer-sepharose as described in Example 2. Histone H1 kinase reactions were performed using either immunoprecipitated or p107 30mer-sepharose bound p34^cdc2. The amount of p34^cdc2 bound to p107 30mer-sepharose was compared with that contained within the immune complex by western blot. Two times the amount of immunoprecipitated p34^cdc2 used in the kinase reaction was blotted to facilitate easier detection. The amount of p34^cdc2 associated with the p107 30mer-sepharose was determined by densitometry to be ≥50 time greater than contained within the immune complexes.

p34^cdc2 [2] = target: T1, p34^cdc2; experiment: Peptide inhibition of p34^cdc2 immune complex histone H1 kinase activity; assay type: biochemical; parameters: endogenous in cells; host or cells: HeLa; conditions: for inhibition at 50 µM: 50 μM peptide, p34^cdc2 immune complex from HeLa cells, histone H1 substrate, read-out: p34^cdc2 Inhib. (%)
Description: (§2) HeLa Cell Lysates: HeLa cell extracts served as a source of p34^cdc2 and p33^cdk2 and were prepared as follows. HeLa cells were lysed in 20 mM N-[2-hydroxyethyl]piperazine-N'-[2-[…]] (HEPES), pH 7.0, 150 mM NaCl, 5 mM sodium vanadate, 10 mM Na4 P2 O7, 1 mM ZnCl2, 2 mM ethylene-diaminetetraacetic acid (EDTA), 2 mM ethylene glycol-bis(β-aminoethyl ether)-N,N,N',N'-tetraacetic acid (EGTA), 1 mM dithiothreitol (DTT), 0.25% (v:v) NP-40, 1 mM Benzamidine, 1 mM phenylmethylsulfonyl fluoride (PMSF) and 20 μg/ml each: N2 S2 O3, leupeptin, Antipan and Pepstatin, followed by centrifugation to remove cell debris.
Immunoprecipitation of p34^cdc2 : Immunoprecipitation of p34^cdc2 from HeLa cell extracts was performed using previously reported procedures (Harlow et al. (1988) in: Antibodies: A Laboratory Manual, ed. Harlow and Lane, Cold Spring Harbor: Cold Spring Harbor Laboratory, pp 421-470) and anti-p34^cdc2 antibody, G6 (Gibco, BRL). Immunoprecipitation by this method yields an activated kinase complex (Draetta et al. (1988), Cell 54:17-26).
as §1
As a further test of the association of p107 with p34^cdc2, and to define the minimal sequence necessary for interaction with p34^cdc2, the effect of p107 peptides on the p34^cdc2 immune complex histone H1 kinase activity was assessed. Both amino- and carboxy-terminal deletions were introduced into the original 30 amino acid peptide (see Table 1). The peptides were synthesized by standard methods and purified by HPLC. Immune complexes were formed as described in Example 4 and resuspended in kinase buffer plus 50 μM of the respective peptide solubilized in N,N-dimethylformamide, or an equal volume of solvent. After incubating the reactions for 15 minutes on ice, histone H1 and γ-[^32 P]-ATP were added and the kinase assays were performed and quantitated as described in Example 4.
The binding affinity of the 9mer peptide for p34^cdc2 was approximated by relating the percent inhibition of histone H1 kinase activity to peptide concentration. Reactions were performed as described in Example 4. The percent inhibition was quantitated using an Ambis Radioanalytic Imaging System. The percent inhibition was plotted versus the peptide concentration. In calculating a binding constant, it was assumed that the concentration of substrate and peptide were in vast excess of the p34^cdc2 protein, which was assumed to be limiting in the reaction.

p34^cdc2 [3] = target: T1, p34^cdc2; experiment: ELISA based competition assay: p34^cdc2 kinase from cell extracts binding to a p107 30mer coated plate; parameters: endogenous in cells; HeLa per the general methods
Text: An ELISA based assay was developed to measure the activity of p107 peptides and their derivatives. A 96-well cluster plate coated with the p107 30mer binds to p34^cdc2 kinase from cell extracts. This binding is easily detectable with anti-p34^cdc2 antibodies and can be used to quantitate the affinity of the p107 wild type and mutant peptides for the p34^cdc2 kinase in addition to the kinase inhibition assay described in Example 7. A summary of all modifications to the original p107 peptides and their effect on binding and kinase inhibition is presented in Table 1. The affinity of the p107 9mer peptide for p34^cdc2 kinase is approximately 10 μM as measured by the ELISA based competition assay, which is in agreement with the binding constant approximated from the kinase inhibition assay as described in Example 7.

HPV18-E7 protein = target: T2, HPV18-E7 protein (Human papillomavirus type 18, UniProt P06788); experiment: biochemical; assay type: binding
T2 construct: made in house
Description: The association of bacterially expressed HPV18-E7 protein with the p107 30mer peptide was analyzed using an ELISA assay. In the experiment depicted in FIG. 3A, a 96-well cluster plate was coated with p107 30mer peptide and incubated with increasing concentration of a MBP-E7 fusion protein or the MBP protein as a control. […] In the experiment depicted in FIG. 3B, MBP-E7 fusion protein (100 ng) was incubated with a p107 30mer peptide-coated plate in the presence of increasing concentrations of free p107 9mer peptide.

p34^cdc2 [4] = target: T1, p34^cdc2; experiment: p107 30mer-sepharose pull-down from HeLa cell lysate, western blot with anti-p34^cdc2 antibody; assay type: binding; parameters: endogenous in cells; host or cells: HeLa
Description: as §2
In order to test whether the α-helix II domain is involved in the interaction of Rb, p107 and cyclin E with p34^cdc2, a 30 amino acid peptide from p107 (residues 692-721: […] [SEQ ID NO:11]) encompassing α-helix II, was synthesized and assayed for its ability to associate with p34^cdc2. […] The concentration of 30mer linked to the bead was 0.85 μmole/ml as determined by HPLC. […] The bound proteins were eluted with increasing concentrations of NaCl, separated by sodium dodecyl sulfate-polyacrylamidegel electrophoresis (SDS-PAGE) (12.5% gel) and transferred to polyvinylidene difluoride (PVDF) membranes. p34^cdc2 was detected by probing the membrane with anti-p34^cdc2 antibody, G6 (Gibco, BRL) (see, Draetta et al. (1988), supra).

HPV16-E7 protein = HPV16-E7 protein (Human papillomavirus type 16, UniProt P03129); conditions: CaSki cell extract, western blot
Text: Rb and p107 form specific complexes with the adenovirus E1A oncoprotein and Rb forms a similar complex with the E7 oncoprotein human papillomavirus (HPV). In order to determine whether the p107 30mer peptide domain and Rb may interact with other tumor suppressor proteins or other cellular and viral ligands, p107 30mer peptide binding to cellular and bacterially expressed human papillomavirus (HPV)-E7 protein was examined. p107 30 amino acid peptide-sepharose, prepared as described in Example 2, was incubated with CaSki cell (HPV-16 positive cervical carcinoma) extract and assayed for the binding of E7 protein.

[5] = Table 1 binding, assay not given, taken as ELISA competition for p34^cdc2 binding, read-out: IC50

T1 sequence (P06493 whole entry): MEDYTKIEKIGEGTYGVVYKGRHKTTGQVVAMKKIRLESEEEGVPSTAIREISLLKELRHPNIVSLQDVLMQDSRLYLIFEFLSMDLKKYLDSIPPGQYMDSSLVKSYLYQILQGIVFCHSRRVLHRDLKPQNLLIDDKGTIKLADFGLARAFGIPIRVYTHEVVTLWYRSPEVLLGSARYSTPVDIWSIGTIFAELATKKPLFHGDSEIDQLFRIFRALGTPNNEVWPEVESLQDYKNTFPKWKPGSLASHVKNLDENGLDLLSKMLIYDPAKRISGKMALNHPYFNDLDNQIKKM
T2 sequence (P06788 whole entry): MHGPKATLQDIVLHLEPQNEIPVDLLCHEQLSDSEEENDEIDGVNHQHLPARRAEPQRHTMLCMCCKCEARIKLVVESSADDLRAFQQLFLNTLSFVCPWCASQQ
HPV16-E7 protein, sequence (P03129 whole entry, the tested form may be a part): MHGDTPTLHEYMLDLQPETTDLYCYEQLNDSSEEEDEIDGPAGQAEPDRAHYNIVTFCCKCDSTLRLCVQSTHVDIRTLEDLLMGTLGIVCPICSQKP

Compound | inhibition at 50 µM (p34^cdc2 [2]) [%] | IC50 (p34^cdc2 [3]; [5]) [µM] | other results
CC[C@H](C)[C@H](NC(=O)[C@H](Cc1ccc(O)cc1)NC(=O)[C@H](Cc1ccccc1)NC(=O)[C@H](C)NC(=O)[C@H](CS)NC(=O)[C@H](CC(C)C)NC(=O)[C@H](CC(C)C)NC(=O)[C@H](CC(C)C)NC(=O)[C@H](CCC(N)=O)NC(=O)[C@H](CC(=O)O)NC(=O)[C@H](CC(C)C)NC(=O)[C@H](Cc1c[nH]cn1)NC(=O)[C@H](CCCNC(=N)N)NC(=O)[C@H](CC(=O)O)NC(=O)[C@H](CCCCN)NC(=O)[C@H](CCSC)NC(=O)[C@H](CC(C)C)NC(=O)[C@H](CC(=O)O)NC(=O)[C@@H]1CCCN1C(=O)[C@H](CS)NC(=O)[C@H](Cc1c[nH]cn1)NC(=O)[C@@H](NC(=O)[C@H](CC(C)C)NC(=O)[C@@H](NC(=O)[C@H](Cc1ccccc1)NC(=O)[C@H](CCC(=O)O)NC(=O)[C@@H](N)Cc1ccccc1)[C@@H](C)O)C(C)C)C(=O)N[C@@H](CCSC)C(=O)N[C@@H](C)C(=O)N[C@@H](CCCCN)C(=O)O [30mer] (H-FEFTLVHCPDLMKDRHLDQLLLCAFYIMAK-OH) |  |  | specific activity of peptide bound enzyme relative to the specific activity of the immune complex (p34^cdc2 [1]; normalized for the amount of p34^cdc2 protein): 1.4%
C[C@H](NC(=O)[C@@H](N)CS)C(=O)N[C@@H](Cc1ccccc1)C(=O)N[C@@H](Cc1ccc(O)cc1)C(=O)O [NC4mer, CAFY] (H-CAFY-OH) | 0 |  | 
AFYIMAK [N7mer, AFYIMAK] | 0 |  | 
CAFYI [NC5mer, CAFYI] | 82 | 13 | 
CAFYIGSPKK [NC5mer-SPKK, CAFYIGSPKK] | 80 |  | 
DLMKDRHLDQLLLCAFYIMAK [21mer] | 70 |  | 
KDRHLDQLLLCAFYIMAK [18mer, KDRHLDQLLLCAFYIMAK] | 80 |  | 
LCAAYIMAK [715FA, LCAAYIMAK] | 0 | > 100 | 
LCAFAIMAK [716YA, LCAFAIMAK] | 0 | 40 | 
LCAFFIMAK [716YF, LCAFFIMAK] | 80 | 25 | 
LCAFY [C5mer, LCAFY] | 0 |  | 
LCAFYI [C6mer, LCAFYI] | 79 |  | 
LCAFYIM [C7mer, LCAFYIM] | 70 |  | 
LCAFYIMAK [9mer, LCAFYIMAK] | 90 | 9 | Kd (p34^cdc2 [3]; ELISA based competition assay, read-out: affinity for p34^cdc2 kinase): ~10 µM; Kd (p34^cdc2 [2]; percent inhibition plotted versus peptide concentration, FIG. 2, read-out: kd calculated from the point of 50% inhibition of histone H1 kinase activity): ~10 µM; Kd (HPV18-E7 protein): ~0.001 µM
LCAFYIMQK [719AQ, LCAFYIMQK] | 75 |  | 
LCAFYKMAK [717IK, LCAFYKMAK] | 0 | > 100 | 
LCAKYIMAK [715FK, LCAKYIMAK] | 0 | > 100 | 
LCAYYIMAK [715FY, LCAYYIMAK] | 20 | 45 | 
LCEFYIMAK [714AE, LCEFYIMAK] | 0 | 23 | 
LDQLLLCAFYIMAK [14mer, LDQLLLCAFYIMAK] | 80 |  | 
LFAFYIMAK [713CF, LFAFYIMAK] | 60 | 15 | decrease in the peptide's ability to inhibit histone H1 kinase activity (p34^cdc2 [2]; versus 9mer): 30%
PKKKRKVCAFYI [SV-NC5mer, PKKKRKVCAFYI] | 0 |  | 
RKRCAFYI [PKG-NC5mer, RKRCAFYI] | 0 |  | 
RRCAFYI [RR-NC5mer, RRCAFYI] | 0 |  | 
SPKKGCAFYI [SPKK-NC5mer, SPKKGCAFYI] | 0 |  | 
YIMAK [N5mer, YIMAK] | 0 |  | IC50 (p34^cdc2 [3]): > 100 µM
p107 30mer-sepharose: p107 30mer covalently linked to CH-activated sepharose 4B (FEFTLVHCPDLMKDRHLDQLLLCAFYIMAK; cysteine pairing not given here; also: covalently linked to CH-activated sepharose 4B) |  |  | binding to p34^cdc2 (p34^cdc2 [4]; HeLa cell lysate, western blot): binds; stability of the complex with p34^cdc2 to NaCl elution (p34^cdc2 [4]; elution with increasing concentrations of NaCl): stable to 2M NaCl; amount of p34^cdc2 associated relative to that within the immune complexes (p34^cdc2 [1]; western blot densitometry): ≥ 50 time greater; binding to HPV16-E7 protein (HPV16-E7 protein): did bind
